{"source": "PubChem BioAssay AID1259411", "about": "(Chemical Carcinogenesis Research Information System (CCRIS), 2018)", "test_system": "rodent carcinogenicity bioassays, tumor incidence", "assay": "CCRIS carcinogenicity studies", "procedure,_shortened": "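NCI-built, expert-reviewed records of carcinogenicity and related test outcomes (mutagenicity, tumor promotion/inhibition) compiled from published and report sources, historical span 1985-2011, not updated.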", "note": "The source made the active and inactive calls. The rule behind the calls is not given here."}
{"compound": "Cc1c2ccccc2c(C)c2c3c(ccc12)[C@H](O)[C@@H](O)C=C3", "values": [{"measurement": "carcinogen call", "setting": "Species: RAT, Strain/Sex: SPRAGUE-DAWLEY/FEMALE (8/GROUP), Route: SUBCUTANEOUS, Dose: 0.1 UMOL 3X A WK FOR 20 DOSES (STUDY DURATION: 38 WK), Tumor Site: Type of Lesion: MAMMARY: ADENOCARCINOMA", "result": "active; positive (100%); no tumors at injection site"}, {"measurement": "carcinogen call", "setting": "Species: RAT, Strain/Sex: SPRAGUE-DAWLEY/FEMALE (8/GROUP), Route: SUBCUTANEOUS, Dose: 0.2 UMOL 3X A WK FOR 20 DOSES (STUDY DURATION: 30 WK), Tumor Site: Type of Lesion: MAMMARY: ADENOCARCINOMA", "result": "active; positive (100%); no tumors at injection site"}]}
{"compound": "C=C(Cl)Cl", "values": [{"measurement": "carcinogen call", "setting": "Species: FISH, Strain/Sex: SHASTA RAINBOW TROUT/MALE, FEMALE, Route: ORAL, Dose: 0, 2000 PPM IN DIET FOR 18 MO (STUDY DURATION: 18 MO)", "result": "inactive; negative"}, {"measurement": "carcinogen call", "setting": "Species: MOUSE, Route: INHALATION, Tumor Site: Type of Lesion: KIDNEY, LUNG, LIVER, Tumor Site: Type of Lesion: KIDNEY, LUNG, LIVER", "result": "active; positive"}, {"measurement": "carcinogen call", "setting": "Species: RAT, Strain/Sex: SPRAGUE-DAWLEY/FEMALE, Route: GAVAGE, Dose: 0, 0.5, 5, 10, 20 MG/KG BW IN OLIVE OIL 1/D 4-5 D/WK FOR 52-59 WK (STUDY DURATION: LIFETIME), Dose: 0, 0.5, 5, 10, 20 MG/KG BW IN OLIVE OIL 1/D 4-5 D/WK FOR 52-59 WK (STUDY DURATION: LIFETIME), Tumor Site: Type of Lesion: [BRAIN WAS ONLY SITE EVALUATED]", "result": "inactive; negative"}, {"measurement": "carcinogen call", "setting": "Species: RAT, Strain/Sex: SPRAGUE-DAWLEY/FEMALE, Route: INHALATION, Dose: 0, 10, 25, 50, 100, 150 PPM IN AIR 4 HR/D 4-5 D/WK FOR 52 WK (STUDY DURATION: LIFETIME), Dose: 0, 10, 25, 50, 100, 150 PPM IN AIR 4 HR/D 4-5 D/WK FOR 52 WK (STUDY DURATION: LIFETIME), Tumor Site: Type of Lesion: [BRAIN WAS ONLY SITE EVALUATED]", "result": "inactive; negative"}, {"measurement": "carcinogen call", "setting": "Species: RAT, Strain/Sex: SPRAGUE-DAWLEY/FEMALE, Route: INHALATION, Dose: 0, 100 PPM 4 HR/D 5 D/WK FOR 7 WK THEN 7 HR/D 5 D/WK FOR 8 WK ADMINISTERED TO RAT EMBRYOS BEGINNING ON THE 12TH DAY OF G", "result": "inactive; negative"}, {"measurement": "carcinogen call", "setting": "Species: RAT, Strain/Sex: SPRAGUE-DAWLEY/FEMALE, Route: INHALATION, Dose: 0, 100 PPM 4 HR/D 5 D/WK FOR 7 WK THEN 7 HR/D 5 D/WK FOR 97 WK ADMINISTERED TO BREEDER RATS (STUDY DURATION: 104 WK)", "result": "inactive; negative"}, {"measurement": "carcinogen call", "setting": "Species: RAT, Strain/Sex: SPRAGUE-DAWLEY/FEMALE, Route: INHALATION, Dose: 0, 100 PPM 4 HR/D 5 D/WK FOR 7 WK THEN 7 HR/D 5 D/WK FOR 97 WK ADMINISTERED TO RAT EMBRYOS BEGINNING ON 12TH DAY OF GEST, Tumor Site: Type of Lesion: HEMATOPOIETIC SYSTEM: LEUKEMIA", "result": "active; positive"}, {"measurement": "carcinogen call", "setting": "Species: RAT, Strain/Sex: SPRAGUE-DAWLEY/FEMALE, Route: ORAL, Dose: 0, 50, 100, 200 PPM IN DRINKING WATER FOR 2 YR (STUDY DURATION: 2 YR), Dose: 0, 50, 100, 200 PPM IN DRINKING WATER FOR 2 YR (STUDY DURATION: 2 YR)", "result": "inactive; negative"}, {"measurement": "carcinogen call", "setting": "Species: RAT, Strain/Sex: SPRAGUE-DAWLEY/MALE, Route: GAVAGE, Dose: 0, 0.5, 5, 10, 20 MG/KG BW IN OLIVE OIL 1/D 4-5 D/WK FOR 52-59 WK (STUDY DURATION: LIFETIME), Dose: 0, 0.5, 5, 10, 20 MG/KG BW IN OLIVE OIL 1/D 4-5 D/WK FOR 52-59 WK (STUDY DURATION: LIFETIME), Tumor Site: Type of Lesion: [BRAIN WAS ONLY SITE EVALUATED]", "result": "inactive; negative"}, {"measurement": "carcinogen call", "setting": "Species: RAT, Strain/Sex: SPRAGUE-DAWLEY/MALE, Route: INHALATION, Dose: 0, 10, 25, 50, 100, 150 PPM IN AIR 4 HR/D 4-5 D/WK FOR 52 WK (STUDY DURATION: LIFETIME), Dose: 0, 10, 25, 50, 100, 150 PPM IN AIR 4 HR/D 4-5 D/WK FOR 52 WK (STUDY DURATION: LIFETIME), Tumor Site: Type of Lesion: [BRAIN WAS ONLY SITE EVALUATED]", "result": "inactive; negative"}, {"measurement": "carcinogen call", "setting": "Species: RAT, Strain/Sex: SPRAGUE-DAWLEY/MALE, Route: INHALATION, Dose: 0, 100 PPM 4 HR/D 5 D/WK FOR 7 WK THEN 7 HR/D 5 D/WK FOR 8 WK ADMINISTERED TO RAT EMBRYOS BEGINNING ON THE 12TH DAY OF G", "result": "inactive; negative"}, {"measurement": "carcinogen call", "setting": "Species: RAT, Strain/Sex: SPRAGUE-DAWLEY/MALE, Route: INHALATION, Dose: 0, 100 PPM 4 HR/D 5 D/WK FOR 7 WK THEN 7 HR/D 5 D/WK FOR 97 WK ADMINISTERED TO RAT EMBRYOS BEGINNING ON 12TH DAY OF GEST", "result": "inactive; negative"}, {"measurement": "carcinogen call", "setting": "Species: RAT, Strain/Sex: SPRAGUE-DAWLEY/MALE, Route: ORAL, Dose: 0, 50, 100, 200 PPM IN DRINKING WATER FOR 2 YR (STUDY DURATION: 2 YR), Dose: 0, 50, 100, 200 PPM IN DRINKING WATER FOR 2 YR (STUDY DURATION: 2 YR)", "result": "inactive; negative"}, {"measurement": "carcinogen call", "setting": "Species: RAT, Strain/Sex: SPRAGUE-DAWLEY, Route: INHALATION, Tumor Site: Type of Lesion: MAMMARY GLAND: FIBROADENOMA, CARCINOMA", "result": "active; positive"}]}
{"compound": "CCCCCC(O)/C=C/C=O", "note": "(stereo not drawn)", "values": [{"measurement": "carcinogen call", "setting": "Species: MOUSE, Strain/Sex: B6C3F1/FEMALE, Route: INTRAPERITONEAL, Dose: 0, 750 NMOL TOTAL DOSE, 1/3 AND 2/3 OF THE TOTAL DOSE ADMINISTERED AT 8 AND 15 DAYS OF AGE RESPECTIVELY, ANIMALS TERMINA", "result": "inactive; negative"}, {"measurement": "carcinogen call", "setting": "Species: MOUSE, Strain/Sex: B6C3F1/FEMALE, Route: INTRAPERITONEAL, Dose: 0, 1500 NMOL TOTAL DOSE, 1/3 AND 2/3 OF THE TOTAL DOSE ADMINISTERED AT 8 AND 15 DAYS OF AGE RESPECTIVELY, ANIMALS TERMIN", "result": "inactive; negative"}, {"measurement": "carcinogen call", "setting": "Species: MOUSE, Strain/Sex: B6C3F1/MALE, Route: INTRAPERITONEAL, Dose: 0, 750 NMOL TOTAL DOSE, 1/3 AND 2/3 OF THE TOTAL DOSE ADMINISTERED AT 8 AND 15 DAYS OF AGE RESPECTIVELY, ANIMALS TERMINA", "result": "inactive; negative"}, {"measurement": "carcinogen call", "setting": "Species: MOUSE, Strain/Sex: B6C3F1/MALE, Route: INTRAPERITONEAL, Dose: 0, 1500 NMOL TOTAL DOSE, 1/3 AND 2/3 OF THE TOTAL DOSE ADMINISTERED AT 8 AND 15 DAYS OF AGE RESPECTIVELY, ANIMALS TERMIN", "result": "inactive; negative"}, {"measurement": "carcinogen call", "setting": "Species: MOUSE, Strain/Sex: CD-1/FEMALE, Route: INTRAPERITONEAL, Dose: 0, 50, 100, 200 NMOL/MOUSE (TOTAL DOSE) ADMINISTERED IN 3 DOSES ON DAY 1, 8 AND 15 OF STUDY (STUDY DURATION: 6 WK), Dose: 0, 50, 100, 200 NMOL/MOUSE (TOTAL DOSE) ADMINISTERED IN 3 DOSES ON DAY 1, 8 AND 15 OF STUDY (STUDY DURATION: 6 WK)", "result": "inactive; negative"}, {"measurement": "carcinogen call", "setting": "Species: MOUSE, Strain/Sex: CD-1/MALE, Route: INTRAPERITONEAL, Dose: 0, 50, 100, 200 NMOL/MOUSE (TOTAL DOSE) ADMINISTERED IN 3 DOSES ON DAY 1, 8 AND 15 OF STUDY (STUDY DURATION: 6 WK), Dose: 0, 50, 100, 200 NMOL/MOUSE (TOTAL DOSE) ADMINISTERED IN 3 DOSES ON DAY 1, 8 AND 15 OF STUDY (STUDY DURATION: 6 WK)", "result": "inactive; negative"}]}
{"compound": "CCN(CC)c1ccc2c(-c3ccc(S(=O)(=O)O)cc3S(=O)(=O)[O-])c3ccc(=[N+](CC)CC)cc-3oc2c1", "values": [{"measurement": "carcinogen call", "setting": "Species: RAT, Strain/Sex: F344/FEMALE, Route: ORAL, Dose: 0, 2.5, 5% IN DIET FOR 106 WK (STUDY DURATION: 106 WK), Dose: 0, 2.5, 5% IN DIET FOR 106 WK (STUDY DURATION: 106 WK)", "result": "inactive; negative"}, {"measurement": "carcinogen call", "setting": "Species: RAT, Strain/Sex: F344/MALE, Route: ORAL, Dose: 0, 2.5, 5% IN DIET FOR 106 WK (STUDY DURATION: 106 WK), Dose: 0, 2.5, 5% IN DIET FOR 106 WK (STUDY DURATION: 106 WK)", "result": "inactive; negative"}]}
{"compound": "c1ccc2n[nH]nc2c1", "values": [{"measurement": "carcinogen call", "setting": "Species: MOUSE, Strain/Sex: B6C3F1/FEMALE, Route: ORAL, Dose: 0, 11700, 23500 PPM IN DIET FOR 104 WK (STUDY DURATION: 106-109 WK), Dose: 0, 11700, 23500 PPM IN DIET FOR 104 WK (STUDY DURATION: 106-109 WK), Tumor Site: Type of Lesion: LUNG: ALVEOLAR/BRONCHIOLAR CARCINOMA", "result": "equivocal"}, {"measurement": "carcinogen call", "setting": "Species: MOUSE, Strain/Sex: B6C3F1/MALE, Route: ORAL, Dose: 0, 11700, 23500 PPM IN DIET FOR 104 WK (STUDY DURATION: 106-109 WK), Dose: 0, 11700, 23500 PPM IN DIET FOR 104 WK (STUDY DURATION: 106-109 WK)", "result": "inactive; negative"}, {"measurement": "carcinogen call", "setting": "Species: RAT, Strain/Sex: F344/FEMALE, Route: ORAL, Dose: 0, 6700, 12100 PPM IN DIET FOR 78 WK (STUDY DURATION: 105-106 WK), Dose: 0, 6700, 12100 PPM IN DIET FOR 78 WK (STUDY DURATION: 105-106 WK), Tumor Site: Type of Lesion: BRAIN: TUMOR", "result": "equivocal"}, {"measurement": "carcinogen call", "setting": "Species: RAT, Strain/Sex: F344/MALE, Route: ORAL, Dose: 0, 6700, 12100 PPM IN DIET FOR 78 WK (STUDY DURATION: 105-106 WK), Dose: 0, 6700, 12100 PPM IN DIET FOR 78 WK (STUDY DURATION: 105-106 WK), Tumor Site: Type of Lesion: BRAIN: TUMOR", "result": "equivocal"}]}
